Like-named read-outs stand apart in the source and are kept apart here. *1 amine or outer side, *2 acyl side, *3 side chain or, on linkers, in order; H or OH if unused. Where a SMILES comes first, the peptide text is derived from it. Bridges are numbered along the chain shown (N, C = ends). [ ]: non-standard residue; d: D form. The star is where a group is joined. ξ: configuration not given here. Bip(4'-COOH) = N[C@@H](Cc1ccc(-c2ccc(C(=O)O)cc2)cc1)C(=O)O; Phe(3-CF3) = N[C@@H](Cc1cccc(C(F)(F)F)c1)C(=O)O; Ala(morpholin-4-yl) = N[C@@H](CN1CCOCC1)C(=O)O; Phe(4-COOH) = N[C@@H](Cc1ccc(C(=O)O)cc1)C(=O)O; X5 = O=C([C@H](Cc1ccc2ncccc2c1)N[*:1])[*:2]; Bip = N[C@@H](Cc1ccc(-c2ccccc2)cc1)C(=O)O; Phe(3-Me) = Cc1cccc(C[C@H](N)C(=O)O)c1; 4Pal = N[C@@H](Cc1ccncc1)C(=O)O; Cha = N[C@@H](CC1CCCCC1)C(=O)O; Cit = NC(=O)NCCC[C@H](N)C(=O)O; Thr(3ξ) = CC(O)[C@H](N)C(=O)O; Carboxymethyl = O=C(O)C*; Orn = NCCC[C@H](N)C(=O)O; Pra = C#CC[C@H](N)C(=O)O; Dab = NCC[C@H](N)C(=O)O; Dap = NC[C@H](N)C(=O)O; Bn = c1ccc(C*)cc1

Here are results for 14 molecules from patent publication US20250163104A1, “MACROCYCLIC IMMUNOMODULATORS” (priority 2021, published 2025).

For this assay, the target named is T1, human PD-1 / PD-L1-Ig binding on Jurkat cell line over-expressing human PD-1 (Jurkat-PD-1) (Homo sapiens, UniProt Q15116).
T1 construct: expressed in transfected cells; host or cells: Jurkat
T1 sequence (Q15116 25-288): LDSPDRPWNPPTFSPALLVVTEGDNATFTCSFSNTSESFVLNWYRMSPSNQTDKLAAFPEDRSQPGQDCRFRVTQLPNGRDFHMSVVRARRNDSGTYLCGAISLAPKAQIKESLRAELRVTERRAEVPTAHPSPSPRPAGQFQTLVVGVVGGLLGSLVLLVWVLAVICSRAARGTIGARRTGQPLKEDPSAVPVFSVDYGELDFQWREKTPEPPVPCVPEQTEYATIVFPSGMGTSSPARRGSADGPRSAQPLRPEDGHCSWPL
The experiment in a line: Jurkat-PD-1 Cell Binding High-Content Screening Assay (CBA). It counts as cell-based. As to conditions: PE-labeled PD-L1-Ig 20 nM final. In short, it runs like this: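 Read-out: high-content imaging of PE-tagged PD-L1-Ig bound to Jurkat cells overexpressing human PD-1, after fixation with 4% paraformaldehyde and Hoechst 33342 nuclear staining. Ligand was used at 20 nM final for 1 hour, after a 2 h compound exposure at 37° C in serum-containing DMEM.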

Where [1] appears, read: Jurkat-PD-1 cells, read-out: Jurkat HPD1_PDL1 IC50.

In general, IC50 refers to the concentration that inhibits the measured activity by half. As to `CC(C)C[C@@H]1NC(=O)[C@H](Cc2c[nH]c3ccccc23)NC(=O)[C@H](CC(=O)O)NC(=O)[C@H](Cc2ccc(OCC(=O)O)cc2)NC(=O)[C@H](C(C)O)NC(=O)CSC[C@@H](C(N)=O)NC(=O)[C@H](CO)NC(=O)[C@H](C(C)C)NC(=O)[C@H](CC2CCCCC2)NC(=O)[C@H](Cc2cnc[nH]2)NC(=O)[C@@H](CC(C)C)NC(=O)[C@H](Cc2cnc[nH]2)NC(=O)[C@H](C(C)C)NC(=O)[C@H](Cc2ccc(-c3ccccc3)cc2)NC1=O` (stereo partly drawn) [Compound 2604] ({CH2CO}-[Thr(3ξ)]Y(Carboxymethyl)DWL[Bip]VH[dL]H[Cha]VSC-NH2; thioether N-14), the IC50 under setting [1] was found to be 234 nM. For `CC(C)C[C@@H]1NC(=O)[C@H](Cc2c[nH]c3ccccc23)NC(=O)[C@H](CC(=O)O)NC(=O)[C@H](Cc2ccncc2)NC(=O)[C@H](Cc2ccc(OCC(=O)O)cc2)NC(=O)CSC[C@@H](C(=O)NCC(N)=O)NC(=O)[C@H](CO)NC(=O)[C@H](C(C)C)NC(=O)[C@H](CC(C)C)NC(=O)[C@H](CCN)NC(=O)[C@@H](CC(C)C)NC(=O)[C@H](CCCN)NC(=O)[C@H](C(C)C)NC(=O)[C@H](Cc2ccc(-c3ccccc3)cc2)NC1=O` [Compound 1258] ({CH2CO}-Y(Carboxymethyl)[4Pal]DWL[Bip]V[Orn][dL][Dab]LVSCG-NH2; thioether N-14), under setting [1], the IC50 came to 8 nM.

Turning to `Cc1cccc(C[C@@H]2NC(=O)[C@H](CC(=O)O)NC(=O)[C@H](Cc3ccc(OCC(=O)O)cc3)NC(=O)[C@H](CN)NC(=O)CSC[C@@H](C(N)=O)NC(=O)[C@H](CCCN)NC(=O)[C@H](C(C)C)NC(=O)[C@H](CC3CCCCC3)NC(=O)[C@H](CCN)NC(=O)[C@@H](CC(C)C)NC(=O)[C@H](CCCN)NC(=O)[C@H](Cc3ccc(OCC(=O)O)cc3)NC(=O)[C@H](Cc3ccc(-c4ccccc4)cc3)NC(=O)[C@H](Cc3ccc(OCC(=O)O)cc3)NC2=O)c1` [Compound 1779] ({CH2CO}-[Dap]Y(Carboxymethyl)D[Phe(3-Me)]Y(Carboxymethyl)[Bip]Y(Carboxymethyl)[Orn][dL][Dab][Cha]V[Orn]C-NH2; thioether N-14), the half-maximal inhibitory concentration (IC50) under setting [1] came to 16.6 nM.

Regarding `C#CC[C@H](NC(=O)[C@H](CCCN)NC(=O)[C@@H]1CSCC(=O)N[C@@H](CN)C(=O)N[C@@H](Cc2ccc(OCC(=O)O)cc2)C(=O)N[C@@H](CC(=O)O)C(=O)N[C@@H](Cc2cccc(C)c2)C(=O)N[C@@H](C(C)C)C(=O)N[C@@H](Cc2ccc(-c3ccccc3)cc2)C(=O)N[C@@H](C(C)C)C(=O)N[C@@H](CCCN)C(=O)N[C@H](CC(C)C)C(=O)N[C@@H](CCN)C(=O)N[C@@H](CC2CCCCC2)C(=O)N[C@@H](C(C)C)C(=O)N[C@@H]([C@@H](C)O)C(=O)N1)C(N)=O` [Compound 2017] ({CH2CO}-[Dap]Y(Carboxymethyl)D[Phe(3-Me)]V[Bip]V[Orn][dL][Dab][Cha]VTC[Orn][Pra]-NH2; thioether N-14), the IC50 under setting [1] was 11.6 nM. As for `Cc1cccc(C[C@@H]2NC(=O)[C@H](CC(=O)O)NC(=O)[C@H](Cc3ccc(OCC(=O)O)cc3)NC(=O)[C@H]([C@@H](C)O)NC(=O)CSC[C@@H](C(N)=O)NC(=O)[C@H]([C@@H](C)O)NC(=O)[C@H](C(C)C)NC(=O)[C@H](CC3CCCCC3)NC(=O)[C@H](CCN)NC(=O)[C@@H](CC(C)C)NC(=O)[C@H](CCCN)NC(=O)[C@H](Cc3ccc(OCC(=O)O)cc3)NC(=O)[C@H](Cc3ccc(-c4ccccc4)cc3)NC(=O)[C@H](Cc3ccc(OCC(=O)O)cc3)NC2=O)c1` [Compound 1800] ({CH2CO}-TY(Carboxymethyl)D[Phe(3-Me)]Y(Carboxymethyl)[Bip]Y(Carboxymethyl)[Orn][dL][Dab][Cha]VTC-NH2; thioether N-14), the 50% inhibitory concentration (IC50) under setting [1] is 17.3 nM. Still for that read-out and setting: then `CC(C)C[C@H]1NC(=O)[C@H](CCCN)NC(=O)[C@H](CCCNC(N)=O)NC(=O)[C@H](Cc2ccc(-c3ccccc3)cc2)NC(=O)[C@H](C(C)C)NC(=O)[C@H](Cc2c[nH]c3ccccc23)NC(=O)[C@H](CC(=O)O)NC(=O)[C@H](Cc2ccc(-c3ccc(C(=O)O)cc3)cc2)NC(=O)[C@H](CN)NC(=O)CSC[C@@H](C(=O)N[C@@H](C)C(N)=O)NC(=O)[C@H]([C@@H](C)O)NC(=O)[C@H](C(C)C)NC(=O)[C@H](CC2CCCCC2)NC(=O)[C@H](CCN)NC1=O` [Compound 2089] ({CH2CO}-[Dap][Bip(4'-COOH)]DWV[Bip][Cit][Orn][dL][Dab][Cha]VTCA-NH2; thioether N-14), with 8.3 nM; and `CC(C)C[C@H]1NC(=O)[C@H](CCCN)NC(=O)[C@H](Cc2ccc(C(=O)O)cc2)NC(=O)[C@H](Cc2ccc(-c3ccccc3)cc2)NC(=O)[C@H](Cc2ccc3ncccc3c2)NC(=O)[C@H](Cc2cccc(C(F)(F)F)c2)NC(=O)[C@H](CC(=O)O)NC(=O)[C@H](Cc2ccc(C(=O)O)cc2)NC(=O)[C@H](CN2CCOCC2)NC(=O)CSC[C@@H](C(=O)N[C@@H](CCN)C(N)=O)NC(=O)[C@H](CCC(=O)O)NC(=O)[C@H](C(C)C)NC(=O)[C@H](CC2CCCCC2)NC(=O)[C@H](CCN)NC1=O` [Example 2741] ({CH2CO}-[Ala(morpholin-4-yl)][Phe(4-COOH)]D[Phe(3-CF3)][X5][Bip][Phe(4-COOH)][Orn][dL][Dab][Cha]VEC[Dab]-NH2; thioether N-14), with 2.3 nM.

In the case of `CC(C)C[C@H]1NC(=O)[C@H](CCCN)NC(=O)[C@H](CCC(=O)O)NC(=O)[C@H](Cc2ccc(-c3ccccc3)cc2)NC(=O)[C@H](C(C)C)NC(=O)[C@H](Cc2cccc(Cl)c2)NC(=O)[C@H](CC(=O)O)NC(=O)[C@H](Cc2ccc(C(=O)O)cc2)NC(=O)[C@H](Cc2ccc(OCC(=O)O)cc2)NC(=O)CSC[C@@H](C(=O)N[C@@H](C)C(N)=O)NC(=O)[C@H]([C@@H](C)O)NC(=O)[C@H](C(C)C)NC(=O)[C@H](CC2CCCCC2)NC(=O)[C@H](CCN)NC1=O` [Compound 1492], the IC50 under setting [1] was 27.4 nM.

`Cc1cccc(C[C@@H]2NC(=O)[C@H](CC(=O)O)NC(=O)[C@H](Cc3ccc(OCC(=O)O)cc3)NC(=O)[C@H](Cc3ccncc3)NC(=O)CSC[C@@H](C(=O)N[C@@H](C)C(N)=O)NC(=O)[C@H]([C@@H](C)O)NC(=O)[C@H](C(C)C)NC(=O)[C@H](CC3CCCCC3)NC(=O)[C@H](CCN)NC(=O)[C@@H](CC(C)C)NC(=O)[C@H](CCCN)NC(=O)[C@H](C(C)C)NC(=O)[C@H](Cc3ccc(-c4ccccc4)cc3)NC(=O)[C@H](C(C)C)NC2=O)c1` [Compound 1200]: the IC50 under setting [1] was 5.4 nM. On to `Cc1cccc(C[C@@H]2NC(=O)[C@H](CC(=O)O)NC(=O)[C@H](Cc3ccc(C(=O)O)cc3)NC(=O)[C@H](Cc3ccncc3)NC(=O)CSC[C@@H](C(=O)N[C@H](CC(N)=O)C(N)=O)NC(=O)[C@H](CO)NC(=O)[C@H](C(C)C)NC(=O)[C@H](CC3CCCCC3)NC(=O)[C@H](CCN)NC(=O)[C@@H](CC(C)C)NC(=O)[C@H](CCCN)NC(=O)[C@H](Cc3ccc(O)cc3)NC(=O)[C@H](Cc3ccc(-c4ccccc4)cc3)NC(=O)[C@H](C(C)C)NC2=O)c1` [Compound 2291] ({CH2CO}-[4Pal][Phe(4-COOH)]D[Phe(3-Me)]V[Bip]Y[Orn][dL][Dab][Cha]VSC[dN]-NH2; thioether N-14), for which, under setting [1], the IC50 turned out to be 10.6 nM.

Molecule `CC(C)C[C@H]1NC(=O)[C@H](CCCN)NC(=O)[C@H](C(C)C)NC(=O)[C@H](Cc2ccc(-c3ccccc3)cc2)NC(=O)[C@H](C(C)C)NC(=O)[C@H](Cc2c[nH]c3ccccc23)NC(=O)[C@H](CC(=O)O)NC(=O)[C@H](Cc2ccc(OCC(=O)O)cc2)NC(=O)[C@H](CN)NC(=O)CSC[C@@H](C(=O)N[C@@H](C)C(N)=O)NC(=O)[C@H]([C@@H](C)O)NC(=O)[C@H](Cc2ccc(OCc3ccccc3)cc2)NC(=O)[C@H](CC2CCCCC2)NC(=O)[C@H](CCN)NC1=O` [Compound 1532] ({CH2CO}-[Dap]Y(Carboxymethyl)DWV[Bip]V[Orn][dL][Dab][Cha]Y(Bn)TCA-NH2; thioether N-14) displayed an IC50 (Jurkat HPD1_PDL1 IC50, Jurkat-PD-1 cells) of 111 nM. Turning to `CC(C)C[C@@H]1NC(=O)[C@H](Cc2c[nH]c3ccccc23)NC(=O)[C@H](CC(=O)O)NC(=O)[C@H](Cc2ccc(O)cc2)NC(=O)[C@H](Cc2ccccc2)NC(=O)CSC[C@@H](C(=O)NCC(N)=O)NC(=O)[C@H](CO)NC(=O)[C@H](C(C)C)NC(=O)[C@H](CC(C)C)NC(=O)[C@H](CC(N)=O)NC(=O)[C@@H](CC(C)C)NC(=O)[C@H](CN)NC(=O)[C@H](C(C)C)NC(=O)[C@H](Cc2ccc(-c3ccccc3)cc2)NC1=O` [Compound 1274] ({CH2CO}-FYDWL[Bip]V[Dap][dL]NLVSCG-NH2; thioether N-14), under setting [1], the IC50 was found to be 38.4 nM.

Regarding `Cc1cccc(C[C@@H]2NC(=O)[C@H](CC(=O)O)NC(=O)[C@H](Cc3ccc(OCC(=O)O)cc3)NC(=O)[C@H](CN)NC(=O)CSC[C@@H](C(=O)N[C@@H](CCC(=O)O)C(=O)O)NC(=O)[C@H]([C@@H](C)O)NC(=O)[C@H](C(C)C)NC(=O)[C@H](CC3CCCCC3)NC(=O)[C@H](CCN)NC(=O)[C@@H](CC(C)C)NC(=O)[C@H](CCCN)NC(=O)[C@H](CCCNC(N)=O)NC(=O)[C@H](Cc3ccc(-c4ccccc4)cc3)NC(=O)[C@H](C(C)C)NC2=O)c1` [Compound 1301] ({CH2CO}-[Dap]Y(Carboxymethyl)D[Phe(3-Me)]V[Bip][Cit][Orn][dL][Dab][Cha]VTCE-OH; thioether N-14), the half-maximal inhibitory concentration (IC50) under setting [1] is 5.9 nM. Same read-out and setting: the figure for `CC[C@H](C)[C@@H]1NC(=O)[C@H](Cc2ccc(-c3ccccc3)cc2)NC(=O)[C@H](C(C)C)NC(=O)[C@H](Cc2c[nH]c3ccccc23)NC(=O)[C@H](CC(=O)O)NC(=O)[C@H](Cc2ccc(O)cc2)NC(=O)[C@H](Cc2ccc(OCC(=O)O)cc2)NC(=O)CSC[C@@H](C(=O)N[C@@H](C)C(N)=O)NC(=O)[C@H]([C@@H](C)O)NC(=O)[C@H](C(C)C)NC(=O)[C@H](CC2CCCCC2)NC(=O)[C@H](CCN)NC(=O)[C@@H](CC(C)C)NC(=O)[C@H](CCCN)NC1=O` [Compound 1167] is 17 nM.
